Reference: patent US10954258B2, “STAT3 dimerization inhibitors” (H. LEE MOFFITT CANCER CENTER AND RESEARCH INSTITUTE, INC., priority 2012, dated 2021)
Values belong to the molecule of their own block, whether it stands above or below them. [ ]: non-standard residue; d: D form. pY = N[C@@H](Cc1ccc(OP(=O)(O)O)cc1)C(=O)O

Experiments:
[1] = test system: human breast and liver cancer xenografts; conditions: human breast and liver cancer xenografts in mouse models; cited from earlier work
[2] = target: binding of FLAG-STAT3 to HA-STAT3 (Mus musculus, UniProt P42227); assay: co-immunoprecipitation of FLAG-STAT3 with HA-STAT3 in HEK293 cells; type: cell-based, human; conditions: HEK293 cells co-expressing FLAG- and HA-STAT3; treated 4 h
binding of FLAG-STAT3 to HA-STAT3, sequence (P42227 whole entry): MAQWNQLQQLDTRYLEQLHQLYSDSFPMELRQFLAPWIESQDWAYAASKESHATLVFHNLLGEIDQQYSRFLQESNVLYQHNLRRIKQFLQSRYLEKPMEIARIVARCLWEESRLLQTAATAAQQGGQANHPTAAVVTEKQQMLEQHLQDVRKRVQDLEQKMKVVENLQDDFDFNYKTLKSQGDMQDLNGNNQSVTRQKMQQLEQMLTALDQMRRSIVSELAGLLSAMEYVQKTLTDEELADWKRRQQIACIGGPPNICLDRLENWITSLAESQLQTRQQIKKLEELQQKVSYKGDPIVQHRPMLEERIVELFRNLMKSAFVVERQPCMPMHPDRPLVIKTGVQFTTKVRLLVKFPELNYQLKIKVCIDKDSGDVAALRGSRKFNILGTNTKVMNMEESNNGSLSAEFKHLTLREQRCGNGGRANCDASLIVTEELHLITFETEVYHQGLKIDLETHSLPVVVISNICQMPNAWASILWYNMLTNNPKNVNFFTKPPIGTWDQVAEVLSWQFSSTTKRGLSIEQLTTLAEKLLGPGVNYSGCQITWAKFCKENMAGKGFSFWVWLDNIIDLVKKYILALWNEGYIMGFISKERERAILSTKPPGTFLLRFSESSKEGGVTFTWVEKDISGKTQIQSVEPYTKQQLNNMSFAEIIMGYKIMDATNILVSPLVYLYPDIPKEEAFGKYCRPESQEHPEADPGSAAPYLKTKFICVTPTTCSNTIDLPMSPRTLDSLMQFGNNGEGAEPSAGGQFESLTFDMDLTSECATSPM
Procedure: HEK-293/FLAG-STAT3/HA-STAT3 cells were treated for 4 h with vehicle, S3I-1757, S3I-1756, Ac-G{pTYR}LPQTV-[…]-NH2 (SEQ ID NO:3) or Ac-GYLPQTV-[…]-NH2 (SEQ ID NO:4) and then lysed in 20 mM Tris-HCl (pH 7.4), 5 mM EDTA, 10 mM Na4P2O7, 100 mM NaF, 2 mM Na3VO4, 1% NP-40.1 mM PMSF and 10 mg/ml aprotinin. For EGF stimulation group, HEK-293/FLAG-STAT3/HASTAT3 cells were treated by 100 ng/ml EGF for 30 minutes before making cell lysate. Protein A or G agarose (EMD Millipore, Billerica, Mass., USA) was washed twice with PBS and restore to 50% slurry with PBS. 500 μg of lysate were pre-cleared by mixture of protein A and protein G-agarose for 1 h at 4° C. and then remove protein A and G-agarose by centrifuge at 1300 rpm for 3 minutes. And then 500 μg of lysate was immunoprecipitated with 50 ng of HA antibody overnight at 4° C. on shaker and then capture the immunocomplex by adding 100 μl Protein A and G agarose/sepharose bead slurry for 1 hour at 4° C. Samples were washed five times with lysis buffer and then boiled in 5×SDS-PAGE sample buffer and run on SDS-PAGE gel. Protein was transferred to nitrocellulose membrane and then blotted as described above for HA, FLAG, pSTAT3, EGFR, and STAT3.
However, the FP assay only measured the ability of S3I-1757 to displace the 7 amino acid fluorescein-labelled GpYLPQTV phosphotyrosine peptide from the SH2 domain of STAT3 protein in vitro. Therefore, it was determined if the intracellular reciprocal binding of 2 full-length STAT3 proteins is inhibited. To this end, an assay was developed to measure directly STAT3-STAT3 dimerization in intact cells by cloning HA-tagged STAT3 and FLAG-tagged STAT3, generating HEK293 cells that stably co-express HA-STAT3 and FLAG-STAT3 and using these cells for coimmunoprecipitation and co-localization. […] This assay was validated by treating the FLAG-STAT3/HA-STAT3 HEK293 cells with tyrosine phosphorylated or nonphosphorylated GYLPQTV peptide fused to a membrane-translocating sequence (MTS) to allow cell uptake. […]

[3] = test system: STAT3-DNA binding activity in MDA-MB-468 and A-549 cells; assay: STAT3-DNA binding filter plate assay on nuclear extracts; type: cell-based, human; conditions: 1, 2 or 4 hours
Procedure: Nuclear extract preparation was carried out as described in Yu, et al., Science 1995; 269(5220):81-83. The STAT3-DNA binding filter plate assay was performed following the manual of the filter plate assay kit (Signosis, Sunnyvale, Calif.), as described for NFkB (Ying, et al., Blood 2011; 117(4):1301-1307). The TF Binding buffer was mixed with the STAT3 probe (biotin labeled STAT3 DNA binding sequence) and nuclear extract and incubated at 16° C. for 30 minutes to form the STAT3-DNA complex. The STAT3-DNA complex was then separated from free probe by using a filter plate. After several steps of binding and washing, bound STAT3 probe is retained on the filter in the corresponding well of Filer Plate and the free DNA probe is removed. The bound pre-labeled STAT3 probe was then eluted from the filter plate by centrifuge with elution buffer. Eluted probes were then hybridized into 96-well Hybridization Plate for quantitative analysis. The captured STAT3 probe was further detected by conjugation with streptavidin-HRP. The chemiluminescence of each well was detected by 2104 EnVisionR Multilabel Reader of PerkinElmer (Pekin Elmer, Waltham, Mass., USA) within 5 minutes after mixture with substrates. […]

[4] = test system: P-STAT3 in the nucleus of MDA-MB-468 cells; assay: P-STAT3 nuclear accumulation by immunofluorescence; type: cell-based, human; conditions: 18 hours, various concentrations

Molecule: Cc1ccc(S(=O)(=O)OCC(=O)Nc2ccc(C(=O)O)c(O)c2)cc1 [Compound S3I-201]
- antitumor effects in xenografts [1]: exert antitumor effects against human breast and liver cancer xenografts in mouse models

- melting point: 188 °C (dec.)
Molecule: O=C(c1ccc(Oc2ccccc2)cc1)N(Cc1ccc(C2CCCCC2)cc1)c1ccc(CP(=O)(O)O)cc1 [Compound 17c, 4-(N-(4-Cyclohexylbenzyl)-4-phenoxybenzamido)benzylphosphonic acid]

- melting point: 182.7 °C (dec.)
Molecule: O=C(c1ccc(Oc2ccccc2)cc1)N(Cc1ccc(C2CCCCC2)cc1)c1ccc(P(=O)(O)O)cc1 [Compound 17a, 4-(N-(4-Cyclohexylbenzyl)-4-phenoxybenzamido)phenylphosphonic acid]

Molecule: COc1ccc(CN(C(=O)c2ccc(Oc3ccccc3)cc2)c2ccc(O)c(C(=O)O)c2)cc1 [Compound 20b, 2-Hydroxy-5-(N-(4-methoxybenzyl)-4-phenoxybenzamido)benzoic acid]
- binding of FLAG-STAT3 to HA-STAT3 (co-immunoprecipitation) [2]: did not inhibit this binding with concentrations as high as 200 μM
- activated STAT3 in nuclear extracts capable of binding the STAT3 DNA binding probe [3]: did not decrease the amount of STAT3 capable of binding DNA
- P-STAT3 nuclear accumulation [4]: little effect with concentrations as high as 200 μM

- melting point: > 250 °C
Molecule: O=C(Nc1ccc(CP(=O)(O)O)cc1)c1ccc(Oc2ccccc2)cc1 [Compound 18c, 4-(4-Phenoxybenzamido)benzylphosphonic acid]

- melting point: 97 °C (dec.)
Molecule: O=C(c1ccc(Oc2ccccc2)cc1)N(Cc1ccc(C2CCCCC2)cc1)c1cccc(CP(=O)(O)O)c1 [Compound 17d, 3-(N-(4-Cyclohexylbenzyl)-4-phenoxybenzamido)benzylphosphonic acid]

Molecule: Ac-G{pTYR}LPQTV-AAVLLPVLLAAP-NH2 (Ac-G[pY]LPQTVAAVLLPVLLAAP-NH2; SMILES CC(=O)NCC(=O)N[C@@H](Cc1ccc(OP(=O)(O)O)cc1)C(=O)N[C@@H](CC(C)C)C(=O)N1CCC[C@H]1C(=O)N[C@@H](CCC(N)=O)C(=O)N[C@H](C(=O)N[C@H](C(=O)N[C@@H](C)C(=O)N[C@@H](C)C(=O)N[C@H](C(=O)N[C@@H](CC(C)C)C(=O)N[C@@H](CC(C)C)C(=O)N1CCC[C@H]1C(=O)N[C@H](C(=O)N[C@@H](CC(C)C)C(=O)N[C@@H](CC(C)C)C(=O)N[C@@H](C)C(=O)N[C@@H](C)C(=O)N1CCC[C@H]1C(N)=O)C(C)C)C(C)C)C(C)C)[C@@H](C)O) [P-Pep, reference compound]
- binding of FLAG-STAT3 to HA-STAT3 (co-immunoprecipitation) [2]: inhibited FLAG-STAT3 from co-immunoprecipitating with HA-STAT3
